From publication PMC8151276, “An Integrated Approach toward NanoBRET Tracers for Analysis of GPCR Ligand Engagement” (Molecules, 2021)

Tests used:
Assay type in all cases: binding
ADRB1 = target: T1, ADRB1 (Homo sapiens, UniProt P08588); experiment: NanoBRET screen HiBiT-ADRB1 in HEK293
T1 construct: purchased Promega (in-house HiBiT-GPCR construct library, NanoBRET)

HTR4 = target: T2, HTR4 (Homo sapiens, UniProt Q13639); experiment: NanoBRET screen HiBiT-HTR4 in HEK293
T2 construct: purchased Promega (in-house HiBiT-GPCR construct library, NanoBRET)
Experimental: (§1) Each tracer candidate was screened across the entire library of HiBiT-GPCR constructs using NanoBRET as the detection modality. As depicted in Figure 4A, the specificity of interactions was evaluated through decrease in BRET due to competitive displacement of a bound tracer by excess parental compound. Each tracer was analyzed for binding to each HiBiT-GPCR fusion in the absence and in the presence of competing parental compound. Briefly, HEK293 cells were transfected with HiBiT-GPCR constructs diluted into promoterless DNA to reduce expression and maximize translocation to the cell surface. Each tracer candidate was then screened at concentrations of 1 μM and 0.1 μM across cells expressing these fusions. Cells were treated for 1.5 h with tracer either alone or in the presence of 20 μM competing parental compound (i.e., control). BRET was measured upon addition of purified LgBiT and subsequent complementation with HiBiT genetically fused to a GPCR. The specificity of interactions was assessed through a decrease in BRET signal due to competitive displacement of the bound tracer. To further gauge the robustness of these interactions, the fold response over the control (i.e., BRETtracer/BRETcontrol) was calculated. We chose a 1.5-fold response, which translates to ≥7-fold signal over noise as the minimal threshold required to score an interaction as positive. […]. Below we highlight the screening results obtained for our exemplary fluorescent tracers based on Clozapine, Amitriptyline and AZD1283.
(§2) HiBiT-GPCR DNA constructs were diluted in 10 mM Tris pH 8 to a final concentration of 0.01 μg/μL, arrayed in 96-well plates and stored at −20 °C. For transfection, HEK293 cells were suspended in Opti-MEM (without phenol red) supplemented with 2% fetal bovine serum (Seradigm) and 100 units/mL penicillin–streptomycin (Gibco) at a final concentration of 220,000 cells/mL and dispensed into white 96-well plates at 90 μL/well. Subsequent transfections and screens were carried using an Agilent Bravo Automated Liquid Handling Platform. First, the 96-well HiBiT DNA arrays were diluted 25-fold in Opti-MEM (without serum or phenol red) to a final concentration of 0.0004 μg/μL and 20 μL of the diluted DNAs were transferred into new 96-well plates. Next, promoterless carrier DNA (1 μg/μL) was diluted 25-fold (0.04 μg/μL) and then dispensed into the diluted arrays at 20 μL/well. Following brief mixing, Viafect transfection reagent (Promega) diluted 16-fold into Opti-MEM was dispensed into the plates at 40 μL/well. After mixing by pipetting, plates were incubated for 10 min on the pipetting station deck. The DNA-transfection reagent complexes were then added to plates containing cells. To facilitate the screen, 10 μL of DNA-transfection reagent complexes were added in duplicates to the top 4 and bottom 4 rows, resulting in two identical 48-well arrays per plate. Plates with transfected cells were incubated for 18–20 h at 37 °C/5% CO2. A screen of each tracer across the entire library using two different concentrations requires duplicate plates of transfected cells. Depending on the number of tracers being screened, transfections can be scaled up using the same ratios. The next day, for each tracer, four 20× screening solutions in tracer dilution buffer (Promega) were prepared: two duplicates at final concentration of 20 μM and two duplicates at a final concentration of 2 μM. A competing unmodified compound was added to one of each duplicate at a final concentration of 400 μM. The four resulting solutions were diluted 4-fold in Opti-MEM without serum or phenol red to generate 5× solutions (5 µM and 0.5 µM tracer +/− 100 μM competing compound). To screen the library, a BioTek MultiFlo FX liquid dispenser was used to dispense 22.5 µL of tracer solution to the top 4 rows and 22.5 µL tracer + competing compound solution to the 4 bottom rows. Plates were briefly mixed on an orbital shaker and incubated for 1.5 h at room temperature. […]

GRM1 = target: T3, GRM1 (Homo sapiens, UniProt Q13255); experiment: NanoBRET screen HiBiT-GRM1 in HEK293
T3 construct: purchased Promega (in-house HiBiT-GPCR construct library, NanoBRET)
Experimental: as §1, §2

T1 sequence (P08588 whole entry): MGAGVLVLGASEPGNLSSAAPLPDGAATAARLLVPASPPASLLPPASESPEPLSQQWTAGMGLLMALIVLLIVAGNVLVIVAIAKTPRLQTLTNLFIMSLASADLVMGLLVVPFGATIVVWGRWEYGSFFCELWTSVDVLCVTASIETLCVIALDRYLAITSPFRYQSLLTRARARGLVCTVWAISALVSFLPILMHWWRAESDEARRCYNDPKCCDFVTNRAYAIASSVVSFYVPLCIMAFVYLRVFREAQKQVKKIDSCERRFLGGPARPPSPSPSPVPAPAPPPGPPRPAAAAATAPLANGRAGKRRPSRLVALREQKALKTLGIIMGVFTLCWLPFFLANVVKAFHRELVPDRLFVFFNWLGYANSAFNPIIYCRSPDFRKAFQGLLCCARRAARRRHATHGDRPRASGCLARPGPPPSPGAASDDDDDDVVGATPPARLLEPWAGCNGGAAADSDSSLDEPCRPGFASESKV
T2 sequence (Q13639 whole entry): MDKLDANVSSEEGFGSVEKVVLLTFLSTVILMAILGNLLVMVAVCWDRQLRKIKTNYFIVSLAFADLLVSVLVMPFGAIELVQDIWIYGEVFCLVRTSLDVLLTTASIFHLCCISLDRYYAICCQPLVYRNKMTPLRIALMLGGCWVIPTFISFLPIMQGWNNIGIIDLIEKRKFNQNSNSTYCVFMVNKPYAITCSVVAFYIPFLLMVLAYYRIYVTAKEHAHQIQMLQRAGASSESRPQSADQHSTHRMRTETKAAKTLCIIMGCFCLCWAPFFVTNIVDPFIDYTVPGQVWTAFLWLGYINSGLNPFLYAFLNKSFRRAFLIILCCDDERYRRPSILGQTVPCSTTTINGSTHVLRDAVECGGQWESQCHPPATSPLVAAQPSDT
T3 sequence (Q13255 19-1194): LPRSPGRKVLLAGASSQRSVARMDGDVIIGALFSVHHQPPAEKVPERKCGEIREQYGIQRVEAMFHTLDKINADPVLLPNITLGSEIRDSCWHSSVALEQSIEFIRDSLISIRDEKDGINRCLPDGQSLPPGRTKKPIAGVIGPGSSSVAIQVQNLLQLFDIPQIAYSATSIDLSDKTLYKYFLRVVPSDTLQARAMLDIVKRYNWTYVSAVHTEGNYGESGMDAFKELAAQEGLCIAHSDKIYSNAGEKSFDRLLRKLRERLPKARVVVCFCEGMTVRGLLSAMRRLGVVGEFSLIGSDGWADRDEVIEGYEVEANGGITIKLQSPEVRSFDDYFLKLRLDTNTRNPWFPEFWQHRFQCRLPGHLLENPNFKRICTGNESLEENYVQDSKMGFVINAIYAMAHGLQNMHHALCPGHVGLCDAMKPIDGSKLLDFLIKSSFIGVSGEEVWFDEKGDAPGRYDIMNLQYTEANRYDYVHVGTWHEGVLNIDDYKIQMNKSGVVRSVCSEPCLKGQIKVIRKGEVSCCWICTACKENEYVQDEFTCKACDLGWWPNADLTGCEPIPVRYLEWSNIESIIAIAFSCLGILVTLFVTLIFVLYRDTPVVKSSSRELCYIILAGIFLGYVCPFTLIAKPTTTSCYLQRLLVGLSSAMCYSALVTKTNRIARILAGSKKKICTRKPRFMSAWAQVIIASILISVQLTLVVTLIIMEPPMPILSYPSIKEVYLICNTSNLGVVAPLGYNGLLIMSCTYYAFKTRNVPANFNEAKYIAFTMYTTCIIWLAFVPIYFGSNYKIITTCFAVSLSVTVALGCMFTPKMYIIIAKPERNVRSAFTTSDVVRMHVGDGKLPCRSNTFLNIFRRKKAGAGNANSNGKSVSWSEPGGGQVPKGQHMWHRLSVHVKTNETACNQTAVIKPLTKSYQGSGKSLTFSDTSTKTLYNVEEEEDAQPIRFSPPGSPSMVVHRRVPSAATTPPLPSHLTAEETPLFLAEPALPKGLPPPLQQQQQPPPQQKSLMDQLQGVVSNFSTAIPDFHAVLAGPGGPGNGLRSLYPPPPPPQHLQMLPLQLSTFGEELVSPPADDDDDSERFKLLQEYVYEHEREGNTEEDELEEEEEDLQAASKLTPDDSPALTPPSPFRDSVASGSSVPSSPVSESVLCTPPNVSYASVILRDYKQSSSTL

Structure (SMILES): CCOC(=O)c1cc(C#N)c(N2CCC(C(=O)NS(=O)(=O)Cc3ccccc3/C=C/C(=O)NCCNC(=O)CCc3ccc4n3[B-](F)(F)[N+]3=C(c5ccc[nH]5)C=CC3=C4)CC2)nc1C [AZD1283-1-NB590]
- NanoBRET Fold Response (ADRB1; ADRB1, 0.1μM): 1.05
- NanoBRET Fold Response (ADRB1; ADRB1, 1μM): 1.09
- NanoBRET Fold Response (HTR4; HTR4, 0.1μM): 1.01
- NanoBRET Fold Response (HTR4; HTR4, 1μM): 1.00
- NanoBRET Fold Response (GRM1; GRM1, 0.1μM): 1.28
- NanoBRET Fold Response (GRM1; GRM1, 1μM): 0.71

Structure (SMILES): N#CN/C(=N\CCNC(=O)c1ccc(N)cc1)NCCCOc1cccc(CN2CCCCC2)c1 [Aminopotentidine (unmodified)]
- NanoBRET Fold Response (ADRB1; ADRB1, other tracers/Aminopotentidine (unmodified), 0.1μM): 1.01
- NanoBRET Fold Response (ADRB1; ADRB1, other tracers/Aminopotentidine (unmodified), 1μM): 1.07
- NanoBRET Fold Response (HTR4; HTR4, other tracers/Aminopotentidine (unmodified), 0.1μM): 1.01
- NanoBRET Fold Response (HTR4; HTR4, other tracers/Aminopotentidine (unmodified), 1μM): 1.19

Structure (SMILES): N#CN=C(NCCCOc1cccc(CN2CCCCC2)c1)NCCNC(=O)CCOCCOCCOCCOCCNC(=O)CCc1ccc2n1[B-](F)(F)[N+]1=C(c3ccc[nH]3)C=CC1=C2 [Aminopotentidine-2-NB590]
- NanoBRET Fold Response (ADRB1; ADRB1, tracer 0.1μM): 1.01
- NanoBRET Fold Response (ADRB1; ADRB1, tracer 1μM): 0.99
- NanoBRET Fold Response (HTR4; HTR4, tracer 0.1μM): 0.97
- NanoBRET Fold Response (HTR4; HTR4, tracer 1μM): 1.05
- NanoBRET Fold Response (GRM1; GRM1, tracer 0.1μM): 0.59
- NanoBRET Fold Response (GRM1; GRM1, tracer 1μM): 0.94

Structure (SMILES): CN(C)CCC=C1c2ccccc2CCc2ccc(C(=O)NCCNC(=O)CCOCCOCCOCCOCCNC(=O)CCc3ccc4n3[B-](F)(F)[N+]3=C(c5ccc[nH]5)C=CC3=C4)cc21 [Amitriptyline-a-2-NB590]
- NanoBRET Fold Response (ADRB1; tracer at 0.1μM): 1.05
- NanoBRET Fold Response (ADRB1; tracer at 1μM): 1.18

Structure (SMILES): CN(C)CCC=C1c2ccccc2CCc2ccc(C(=O)NCCNC(=O)CCOCCOCCOCCOCCNC(=O)CCc3ccc4n3[B-](F)(F)[N+]3=C(c5ccc[nH]5)C=CC3=C4)cc21 [Amitriptyline-b-2-NB590]
- NanoBRET Fold Response (ADRB1; tracer at 1μM, listed as amitriptyline-b-2-NB590): 0.96
- NanoBRET Fold Response (HTR4; tracer at 0.1μM): 1.03
- NanoBRET Fold Response (HTR4; tracer at 1μM): 1.09
- NanoBRET Fold Response (GRM1; GRM1, tracer 0.1μM): 0.77
- NanoBRET Fold Response (GRM1; GRM1, tracer 1μM): 0.97

Structure (SMILES): CN(CCC=C1c2ccccc2CCc2ccccc21)C(=O)CCOCCOCCOCCOCCNC(=O)CCc1ccc2n1[B-](F)(F)[N+]1=C(c3ccc[nH]3)C=CC1=C2 [Amitriptyline-e-2-NB590]
- NanoBRET Fold Response (ADRB1; tracer at 1μM): 0.95

Structure (SMILES): COc1ccc2c(n1)c(CCNC(C)=O)cn2CCNC(=O)CCc1ccc2n1[B-](F)(F)[N+]1=C(c3ccc[nH]3)C=CC1=C2 [Azamelatonin-1-NB590]
- NanoBRET Fold Response (ADRB1; 0.1μM tracer): 0.98
- NanoBRET Fold Response (ADRB1; 1μM tracer): 0.96
- NanoBRET Fold Response (HTR4; 0.1μM tracer): 0.95
- NanoBRET Fold Response (HTR4; 1μM tracer): 1.02
- NanoBRET Fold Response (GRM1; 0.1μM tracer): 1.27
- NanoBRET Fold Response (GRM1; 1μM tracer): 0.47

Structure (SMILES): COc1ccc2[nH]c(-c3ccc(CNC(=O)CCOCCOCCOCCOCCNC(=O)CCc4ccc5n4[B-](F)(F)[N+]4=C(c6ccc[nH]6)C=CC4=C5)cc3)c(CCNC(C)=O)c2n1 [AzomelatoninICO9-2-NB590]
- NanoBRET Fold Response (ADRB1; 0.1μM tracer): 0.84
- NanoBRET Fold Response (ADRB1; 1μM tracer): 0.96
- NanoBRET Fold Response (HTR4; 0.1μM tracer): 1.03
- NanoBRET Fold Response (HTR4; 1μM tracer): 0.95
- NanoBRET Fold Response (GRM1; 0.1μM tracer): 0.66
- NanoBRET Fold Response (GRM1; 1μM tracer): 1.33

Structure (SMILES): O=C(CCOCCOCCOCCOCCNC(=O)CCc1ccc2n1[B-](F)(F)[N+]1=C(c3ccc[nH]3)C=CC1=C2)NCCCN1CCN(C2=Nc3cc(Cl)ccc3Nc3ccccc32)CC1 [Clozapine-a-2-NB590]
- NanoBRET Fold Response (ADRB1; ADRB1, 0.1μM tracer): 0.95
- NanoBRET Fold Response (ADRB1; ADRB1, 1μM tracer): 0.94
- NanoBRET Fold Response (HTR4; HTR4, 0.1μM tracer): 1.02
- NanoBRET Fold Response (HTR4; HTR4, 1μM tracer): 1.12
- NanoBRET Fold Response (GRM1; GRM1, 0.1μM tracer): 1.42
- NanoBRET Fold Response (GRM1; GRM1, 1μM tracer): 0.90
